“And” between values parts separate entries of the source, which are not always exact repeats. Equal values may be shown once. “Also recorded” adds a separate entry of the source. Read-outs that look alike come from different tables or passages of the source.
Columns and labels:
LC3A = LC3A (Homo sapiens, UniProt Q9H492); experiment: FP assay with Cy5-labelled p62 LIR tracer (protein titration and tracer displacement); assay type: binding; conditions: for normalized FP signal, p62 LIR tracer displacement: LC3A
LC3B = LC3B (Homo sapiens, UniProt Q9GZQ8); experiment: as above; assay type: binding; conditions: for normalized FP signal, p62 LIR tracer displacement: LC3B; for compound titration LC3B (displacement curve, FP signal): two replicate columns per compound
[1] = test system: LC3/GABARAPs (human Atg8 family); experiment: FP assay with Cy5-labelled p62 LIR tracer, statements on all LC3/GABARAPs; assay type: binding
[2] = Cell viability measurements; assay type: cell-based; parameters: Cell viability: scale not given here; conditions: two replicate columns; for Cell viability: listed as 10O5
From the text: 1 Source data for Supplementary Fig. 8a-f are provided as a Source Data file.

GABARAPL2 = GABARAPL2 (Homo sapiens, UniProt P60520); conditions: for CSP: GABARAPL2:ligand molar ratio 1:2; for 3D Mapping code: molar ratio 1:2
[3] = log10 concentration [M] -3.82391
[4] = log10 concentration [M] -4.60206
[5] = log10 concentration [M] -5.30103
[6] = log10 concentration [M] -6.22185
[7] = log10 concentration [M] -4.1549
[8] = log10 concentration [M] -5.69897
[9] = log10 concentration [M] -6.69897
[10] = log10 concentration [M] -7.30103
[11] = log10 concentration [M] -7.79588
[12] = log10 concentration [M] -8.08092

Chain of GABARAPL2 (P60520 whole entry): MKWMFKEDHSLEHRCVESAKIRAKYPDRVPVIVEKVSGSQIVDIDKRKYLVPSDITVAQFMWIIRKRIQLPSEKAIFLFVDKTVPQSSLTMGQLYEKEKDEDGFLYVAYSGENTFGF

O=C1Nc2ccc(I)cc2C1=Cc1cc(Br)c(O)c(Br)c1 [compound 4]
normalized FP signal, p62 LIR tracer displacement (LC3A; [3]): 89.4737 | normalized FP signal, p62 LIR tracer displacement (LC3A; log10 concentration [M] -3.82391, listed as 10O5): 75.5263 | normalized FP signal, p62 LIR tracer displacement (LC3A; log10 concentration [M] -4.1549, listed as 10O5): 82.8947 and 95 | normalized FP signal, p62 LIR tracer displacement (LC3A; [4]): 100.526 | normalized FP signal, p62 LIR tracer displacement (LC3A; log10 concentration [M] -4.60206, listed as 10O5): 87.3684 | normalized FP signal, p62 LIR tracer displacement (LC3A; log10 concentration [M] -5): 94.4737 | normalized FP signal, p62 LIR tracer displacement (LC3A; log10 concentration [M] -5, listed as 10O5): 88.6842 | normalized FP signal, p62 LIR tracer displacement (LC3A; [5]): 95.7895 | normalized FP signal, p62 LIR tracer displacement (LC3A; log10 concentration [M] -5.69897, listed as 10O5): 88.1579 and 98.6842 | normalized FP signal, p62 LIR tracer displacement (LC3A; [6]): 93.1579 | normalized FP signal, p62 LIR tracer displacement (LC3A; log10 concentration [M] -6.22185, listed as 10O5): 102.368 | normalized FP signal, p62 LIR tracer displacement (LC3A; log10 concentration [M] -6.69897, listed as 10O5): 99.4737 and 97.6316 | normalized FP signal, p62 LIR tracer displacement (LC3A; log10 concentration [M] -7.30103, listed as 10O5): 97.6316 and 100 | normalized FP signal, p62 LIR tracer displacement (LC3A; log10 concentration [M] -7.79588, listed as 10O5): 98.6842 and 98.1579 | normalized FP signal, p62 LIR tracer displacement (LC3A; log10 concentration [M] -8.08092, listed as 10O5): 98.9474 and 105.263 | compound titration LC3A (displacement curve, FP signal) (LC3A; log10 concentration [M] -5.30103, two replicate columns per compound): 95.7895 | normalized FP signal, p62 LIR tracer displacement (LC3B; [3]): 84.7368 | normalized FP signal, p62 LIR tracer displacement (LC3B; [7]): 89.2105 | normalized FP signal, p62 LIR tracer displacement (LC3B; [4]): 90.7895 | normalized FP signal, p62 LIR tracer displacement (LC3B; log10 concentration [M] -5): 95 | normalized FP signal, p62 LIR tracer displacement (LC3B; [5]): 93.9474 and 101.579 | normalized FP signal, p62 LIR tracer displacement (LC3B; [8]): 91.0526 | normalized FP signal, p62 LIR tracer displacement (LC3B; [6]): 96.5789 | normalized FP signal, p62 LIR tracer displacement (LC3B; [9]): 94.2105 and 95.5263 | normalized FP signal, p62 LIR tracer displacement (LC3B; [10]): 96.3158 and 90.2632 | normalized FP signal, p62 LIR tracer displacement (LC3B; [11]): 96.5789 | normalized FP signal, p62 LIR tracer displacement (LC3B; [12]): 96.0526 and 95.2632 | compound titration LC3B (displacement curve, FP signal) (LC3B; [3]): 84.7368 and 89.4737 | compound titration LC3B (displacement curve, FP signal) (LC3B; [7]): 89.4737 and 89.2105 | compound titration LC3B (displacement curve, FP signal) (LC3B; [4]): 90.7895 and 93.1579 | compound titration LC3B (displacement curve, FP signal) (LC3B; log10 concentration [M] -5): 95 and 100.526 | compound titration LC3B (displacement curve, FP signal) (LC3B; [5]): 93.9474 and 101.579 | compound titration LC3B (displacement curve, FP signal) (LC3B; [8]): 91.0526 | compound titration LC3B (displacement curve, FP signal) (LC3B; [6]): 96.5789 and 94.4737 | compound titration LC3B (displacement curve, FP signal) (LC3B; [9]): 94.2105 and 95.5263 | compound titration LC3B (displacement curve, FP signal) (LC3B; [10]): 96.3158 and 90.2632 | compound titration LC3B (displacement curve, FP signal) (LC3B; [11]): 93.1579 and 96.5789 | compound titration LC3B (displacement curve, FP signal) (LC3B; [12]): 96.0526 and 95.2632 | interaction with LC3/GABARAP family members in FP displacement assay [1]: weak interaction of 10O5 (4) with GABARAP family members | viability at 20 µM ([2]; log concentration [M] -4.69897): 104% | Cell viability ([2]; log concentration [M] -4.69897): 92.5568 | viability at 7.5 µM ([2]; log concentration [M] -5.12494): 94.8% | Cell viability ([2]; log concentration [M] -5.12494): 95.6466 | viability at 2.5 µM ([2]; log concentration [M] -5.60206): 94.2% | Cell viability ([2]; log concentration [M] -5.60206): 97.1871 | viability at […] ([2]; log concentration [M] -6.00436): 95.7% | Cell viability ([2]; log concentration [M] -6.00436): 90.9151 | viability at 0.3 µM ([2]; log concentration [M] -6.52288): 104% | Cell viability ([2]; log concentration [M] -6.52288): 93.3208 | viability at 0.125 µM ([2]; log concentration [M] -6.90309): 101% | Cell viability ([2]; log concentration [M] -6.90309): 92.1984 | viability at 0.05 µM ([2]; log concentration [M] -7.30103): 103% | Cell viability ([2]; log concentration [M] -7.30103): 94.2945 | viability at 0.01625 µM ([2]; log concentration [M] -7.78915): 101% | Cell viability ([2]; log concentration [M] -7.78915): 89.5849 | viability at […] ([2]; log concentration [M] -8.06399): 103% | Cell viability ([2]; log concentration [M] -8.06399): 99.4914 | viability at 0.005 µM ([2]; log concentration [M] -8.30103): 99.7% | Cell viability ([2]; log concentration [M] -8.30103): 88.3293 | viability at 0.0021 µM ([2]; log concentration [M] -8.67778): 100% | Cell viability ([2]; log concentration [M] -8.67778): 90.0519 | interaction in 2D NMR titration (GABARAPL2; GABARAPL2, listed as 10O5): only 10O5 (4) was able to interact with GABARAPL2; also recorded: prominent CSP | CSP induced, K48 HN resonance (GABARAPL2; Molar ratio 10O5:GABARAPL2 0.5): 0.08111 | CSP induced, L50 HN resonance (GABARAPL2; Molar ratio 10O5:GABARAPL2 0.5): 0.0416 | CSP induced, R28 HN resonance (GABARAPL2; Molar ratio 10O5:GABARAPL2 0.5): 0.0281 | CSP induced, V16 HN resonance (GABARAPL2; Molar ratio 10O5:GABARAPL2 0.5): 0.00761 | CSP induced, V31 HN resonance (GABARAPL2; Molar ratio 10O5:GABARAPL2 0.5): 0.04746 | CSP induced, Y109 HN resonance (GABARAPL2; Molar ratio 10O5:GABARAPL2 0.5): 0.01545 | CSP induced, K48 HN resonance (GABARAPL2; Molar ratio 10O5:GABARAPL2 1): 0.1338 | CSP induced, L50 HN resonance (GABARAPL2; Molar ratio 10O5:GABARAPL2 1): 0.06831 | CSP induced, R28 HN resonance (GABARAPL2; Molar ratio 10O5:GABARAPL2 1): 0.04204 | CSP induced, V16 HN resonance (GABARAPL2; Molar ratio 10O5:GABARAPL2 1): 0.03636 | CSP induced, V31 HN resonance (GABARAPL2; Molar ratio 10O5:GABARAPL2 1): 0.08123 | CSP induced, Y109 HN resonance (GABARAPL2; Molar ratio 10O5:GABARAPL2 1): 0.03416 | CSP induced, K48 HN resonance (GABARAPL2; Molar ratio 10O5:GABARAPL2 2): 0.1662 | CSP induced, L50 HN resonance (GABARAPL2; Molar ratio 10O5:GABARAPL2 2): 0.09155 | CSP induced, R28 HN resonance (GABARAPL2; Molar ratio 10O5:GABARAPL2 2): 0.06538 | CSP induced, V16 HN resonance (GABARAPL2; Molar ratio 10O5:GABARAPL2 2): 0.05012 | CSP induced, V31 HN resonance (GABARAPL2; Molar ratio 10O5:GABARAPL2 2): 0.1265 | CSP induced, Y109 HN resonance (GABARAPL2; Molar ratio 10O5:GABARAPL2 2): 0.04477 | CSP induced, K48 HN resonance (GABARAPL2; Molar ratio 10O5:GABARAPL2 4): 0.2294 | CSP induced, L50 HN resonance (GABARAPL2; Molar ratio 10O5:GABARAPL2 4): 0.1327 | CSP induced, R28 HN resonance (GABARAPL2; Molar ratio 10O5:GABARAPL2 4): 0.07911 | CSP induced, V16 HN resonance (GABARAPL2; Molar ratio 10O5:GABARAPL2 4): 0.07334 | CSP induced, V31 HN resonance (GABARAPL2; Molar ratio 10O5:GABARAPL2 4): 0.1464 | CSP induced, Y109 HN resonance (GABARAPL2; Molar ratio 10O5:GABARAPL2 4): 0.06741 | CSP (GABARAPL2; residue A19): 0.086 ppm | 3D Mapping code (GABARAPL2; residue A19): Orange | CSP (GABARAPL2; residue A23): 0.058 ppm | 3D Mapping code (GABARAPL2; residue A23): Orange | CSP (GABARAPL2; residue A58): 0.016 ppm | CSP (GABARAPL2; residue A75): 0.00255 ppm | CSP (GABARAPL2; residue A108): 0.017 ppm | CSP (GABARAPL2; residue C15): 0.019 ppm | CSP (GABARAPL2; residue D8): 0.007 ppm | CSP (GABARAPL2; residue D27): 0.029 ppm | 3D Mapping code (GABARAPL2; residue D27): Light green | CSP (GABARAPL2; residue D43): 0.009 ppm | CSP (GABARAPL2; residue D45): 0.030 ppm | 3D Mapping code (GABARAPL2; residue D45): Light green | CSP (GABARAPL2; residue D54): 0.029 ppm | 3D Mapping code (GABARAPL2; residue D54): Light green | CSP (GABARAPL2; residue D81): 0.022 ppm | CSP (GABARAPL2; residue D100): 0.018 ppm | CSP (GABARAPL2; residue D102): 0.033 ppm | 3D Mapping code (GABARAPL2; residue D102): Light green | CSP (GABARAPL2; residue E7): 0.029 ppm | 3D Mapping code (GABARAPL2; residue E7): Light green | CSP (GABARAPL2; residue E12): 0.015 ppm | CSP (GABARAPL2; residue E17): 0.081 ppm | 3D Mapping code (GABARAPL2; residue E17): Orange | CSP (GABARAPL2; residue E34): 0.060 ppm | 3D Mapping code (GABARAPL2; residue E34): Orange

Reference: article PMC11589570, “Critical assessment of LC3/GABARAP ligands used for degrader development and ligandability of LC3/GABARAP binding pockets” (Nature Communications, 2024)
